In PubChem BioAssay (NCI):
Where “and” joins values, the source holds several entries; their conditions need not be identical. Equal values may be shown once.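 These data come from cells grown in 96-well plates and exposed to compound for 48 hours at five concentrations. The concentration for 50% growth inhibition is given as GI50. The concentration for full growth arrest is given as TGI.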

Tests used:
Assay in all cases: inhibition of tumour cell growth, NCI panel, 48 h
NCI-H522 lung = system: NCI-H522 lung
K-562 leukemia = system: K-562 leukemia
SK-MEL-2 melanoma = system: SK-MEL-2 melanoma
HCC-2998 colon = system: HCC-2998 colon
HL-60(TB) leukemia = system: HL-60(TB) leukemia
SK-MEL-28 melanoma = system: SK-MEL-28 melanoma
OVCAR-5 ovarian = system: OVCAR-5 ovarian
UO-31 renal = system: UO-31 renal
RXF 393 renal = system: RXF 393 renal
MCF7 breast = system: MCF7 breast

SMILES	TGI (NCI-H522 lung)	TGI (K-562 leukemia)	TGI (SK-MEL-2 melanoma)	TGI (HCC-2998 colon)	TGI (HL-60(TB) leukemia)	TGI (SK-MEL-28 melanoma)	TGI (OVCAR-5 ovarian)	TGI (UO-31 renal)	TGI (RXF 393 renal)	TGI (MCF7 breast)	GI50 (NCI-H522 lung)	GI50 (K-562 leukemia)	GI50 (SK-MEL-2 melanoma)	GI50 (MCF7 breast)	GI50 (HL-60(TB) leukemia)	GI50 (SK-MEL-28 melanoma)	GI50 (OVCAR-5 ovarian)	GI50 (UO-31 renal)	GI50 (RXF 393 renal)	GI50 (HCC-2998 colon)
CSCCOC(=O)C(=[N+]=[N-])c1ccc([N+](=O)[O-])cc1	> 100 µM	> 100 µM	> 100 µM	> 100 µM	> 100 µM	> 100 µM	> 100 µM	> 100 µM	> 100 µM											
OC1C2CCC1C1C3C=CC(C3)C21 (stereo not given)	> 100 µM	> 100 µM	> 100 µM		> 100 µM	> 100 µM	> 100 µM	> 100 µM	> 100 µM											
CC(=O)C1(N=Nc2ccc(S(N)(=O)=O)cc2)CCOC1=O (stereo not given)	> 100 µM		> 100 µM		> 100 µM	> 100 µM	> 100 µM	> 100 µM	> 100 µM	> 100 µM										
N#CC1=C(N)NC(=S)NC12Nc1ccccc1N2	80 µM	> 100 µM	> 100 µM		> 100 µM	> 100 µM	> 100 µM	> 100 µM	> 100 µM	> 100 µM	20.8 µM	28.1 µM	18.6 µM	22.7 µM	20.8 µM	47.4 µM	46.8 µM	55.2 µM	> 100 µM	
CCC[CH2][Sn]1([CH2]CCC)[O]C(=O)c2ccc(C)cc2[O]1	0.239 µM	0.846 µM		2.38 µM	1.01 µM	1.45 µM	3.05 µM	2.08 µM	0.839 µM		0.113 µM	0.247 µM			0.273 µM	0.412 µM	1.67 µM	0.845 µM	0.306 µM	1.14 µM
CCc1ccc2c(c1)N(CCO)C1=C(C(=O)OC1)C2c1cccc(Cl)c1 (stereo not given)	2.76 µM	23.9 µM	16.2 µM	9.25 µM	8.82 µM	17.5 µM	23.4 µM	20.9 µM	3.57 µM		0.242 µM	0.485 µM	0.371 µM		0.482 µM	0.613 µM	4.61 µM	2.52 µM	0.378 µM	1.35 µM
C[n+]1ccc(-c2c3nc(c(-c4cc[n+](C)cc4)c4ccc([n-]4)c(-c4cc[n+](C)cc4)c4nc(c(-c5cc[n+](C)cc5)c5ccc2[n-]5)C=C4)C=C3)cc1.[I-].[Zn+2]	9.88 µM	59.8 µM	47.3 µM	> 100 µM	42 µM	20 µM	> 100 µM	38.4 µM	7.91 µM		1.61 µM	23 µM	19.1 µM		21.5 µM	5.54 µM	> 100 µM	17.3 µM	3.03 µM	49.6 µM
CC1(C)CCC(C)(C)c2c1ccc(O)c2Cc1c(O)ccc2c1C(C)(C)CCC2(C)C	4.04 µM	5.41 µM	3.19 µM		5.46 µM	4.93 µM	4.56 µM	4.04 µM	3.47 µM	3.83 µM										
CC1OC(OC2C(CO)OC(O[C@H]3CC[C@@]4(C)C(=CC[C@H]5[C@@H]6C[C@@H]7O[C@]8(CC[C@@H](C)CN8)[C@@H](C)[C@@H]7[C@@]6(C)CC[C@@H]54)C3)C(O)C2O)C(O)C(O)C1O (stereo not given in full)	> 100 µM	> 100 µM	> 100 µM		> 100 µM	> 100 µM	> 100 µM	> 100 µM	> 100 µM											
CC(C)(C)OC(=O)NC(CO)c1cccc(OCc2ccccc2)c1 (stereo not given)	> 100 µM	> 100 µM	> 100 µM	> 100 µM	43.8 µM	> 100 µM	> 100 µM	> 100 µM	> 100 µM											
CC[C@@H]1C[C@H]2CC3c4[nH]c5ccc(O)cc5c4CCN(C2)C31		> 100 µM	> 100 µM	> 100 µM	> 100 µM	> 100 µM	> 100 µM	> 100 µM	> 100 µM											
O=c1oc(=O)c2oc3ccccc3oc1=2	> 100 µM	> 100 µM	> 100 µM	> 100 µM	> 100 µM	> 100 µM	> 100 µM	> 100 µM	> 100 µM											
CC/C(=C(/c1ccc(O)cc1)c1ccc(OCCN2CCCCC2)cc1)c1ccc(OC)cc1	13.7 µM	1.16 µM	4.83 µM	9.13 µM	4.1 µM	3.48 µM	14.8 µM	2.49 µM		2.08 µM	3.41 µM	0.29 µM	2.04 µM	0.0707 µM	1.99 µM	1.78 µM	3.25 µM	1.13 µM		2.9 µM
O=C1CC(O)(c2ccccc2)C(c2ccccc2)=C1c1ccccc1 (stereo not given)	54.1 µM	> 100 µM	> 100 µM	> 100 µM	56.3 µM	> 100 µM	> 100 µM		> 100 µM											
CN(C)CCOC(c1ccccc1)c1ccccc1	44.3 µM and > 100 µM	> 100 µM	51.6 µM and > 100 µM	> 100 µM	> 100 µM	35.3 µM and > 100 µM	52.4 µM and > 100 µM	47.4 µM and > 100 µM		54 µM and > 100 µM	25.6 µM		35.5 µM	36.5 µM		18.1 µM	36.7 µM	32.6 µM		
COC(=O)c1ccc(Cl)cc1NC(=O)C1CCCCC1	> 100 µM	> 100 µM	> 100 µM	> 100 µM		> 100 µM	> 100 µM	> 100 µM	> 100 µM											
COc1ccc2oc(C(=O)O)c3c2c1CCC3		> 100 µM		> 100 µM	> 100 µM	> 100 µM			> 100 µM											
COc1ccc(-c2nc(N3CCN(C(=O)C4CCCCC4)CC3)c3c4c(sc3n2)CCCC4)cc1	96.9 µM	> 100 µM		> 100 µM	> 100 µM	> 100 µM	> 100 µM	> 100 µM	53.4 µM	> 100 µM	27.9 µM	> 100 µM		82.9 µM	70.5 µM	> 100 µM	> 100 µM	95.4 µM	21.3 µM	> 100 µM
